This passage reports IC50 results from patent publication US8975417B2, “Pyrazolopyrrolidine derivatives and their use in the treatment of disease” (Novartis AG, priority 2013, dated 2015).

A value given as a limit tells only on which side of the number the result lay.

Conditions in all cases: biochemical
In one experiment the target is His-Brd4(44-477) (Homo sapiens (Human), UniProt O60885). Put plainly: TR-FRET in-vitro binding assay for BRD4. The protocol:
(§1) TR-FRET In-Vitro Binding Assays for BRD2, BRD3, and BRD4:
(§2) All assays were performed in 384-well microtiter plates. Each assay plate contained 8-point serial dilutions for 40 test compounds, plus 16 high- and 16 low controls. Liquid handling and incubation steps were done on an Innovadyne Nanodrop Express equipped with a robotic arm (Thermo CatX, Perkin Elmer/Caliper Twister II) and an incubator (Liconic STX40, Thermo Cytomat 2C450). The assay plates were prepared by addition of 50 nl per well of compound solution in 90% DMSO HummingBird nanodispenser (Zinsser Analytic). The assay was started by stepwise addition of 4.5 μL per well of bromo domain protein (50 mM HEPES, pH 7.5, 0.005% Tween20, 0.1% BSA, 50 mM NaCl, 45 nM His-Brd2(60-472) or 45 nM His-Brd3(20-477) or 45 nM His-Brd4(44-477) all proteins produced in-house) and 4.5 μL per well of peptide solution (50 mM HEPES, pH 7.5, 0.005% Tween20, 0.1% BSA, 50 mM NaCl, 60 nM acetyl-histone H4 (AcK 5, 8, 12, 16) (Biosyntan GmbH)). Reactions were incubated at 30° C. for 35 minutes. Subsequently 4.5 μL per well detection mix (50 mM HEPES, pH 7.5, 0.005% Tween20, 0.1% BSA, 50 mM NaCl, 3 nM Eu-labeled anti-His6 antibody, 21 nM streptavidin-allophycocyanin) were added. After minutes incubation at 30° C., plates were measured in a Perkin Elmer EnVision multilabel reader.
(§3) Test compounds were dissolved in DMSO (10 mM) and transferred into 1.4 mL flat bottom or V-shaped Matrix tubes carrying a unique 2D matrix. The stock solutions were stored at […] if not used immediately. For the test procedure the vials were defrosted and identified by a scanner whereby a working sheet was generated that guided the subsequent working steps. Compound dilutions were made in 96 well plates. This format enabled the assay of maximally […] at 8 concentrations (single points) including 4 reference compounds, if desired (known BET inhibitors from the prior art, for this and other assays of the type disclosed herein). The dilution protocol included the production of “pre-dilution plates”, “master plates” and “assay plates”.
(§4) Polypropylene 96-well plates were used as pre-dilution plates. […] All dilution steps were done on a HamiltonSTAR robot.
(§5) 30 μL of individual compound dilutions including standard compound and controls of the 4 “pre-dilution plates” were transferred into a 384-well “master plate” including the following concentrations 10000, […], 1000, 300, 100, 30, 10 and 3 μM, respectively in 90% of DMSO.
(§6) Identical “assay plates” were then prepared by pipetting 50 nL each of compound dilutions of the “master plates” into 384-well “assay plates” by means of a HummingBird 384-channel dispenser. These plates were used directly for the assay which was performed in a total volume of 13.55 μL.

In a further experiment the target is His-Brd2(60-472) (Homo sapiens (Human), UniProt P25440). Description: TR-FRET in-vitro binding assay for BRD2. The protocol: as §1, §2, §3, §4, §5, §6
In general terms: TR-FRET usually uses a lanthanide donor and a delayed reading to cut background.

Another experiment concerns the target His-Brd3(20-477) (Homo sapiens (Human), UniProt Q15059). Put plainly: TR-FRET in-vitro binding assay for BRD3. As for the experimental part: as §1, §2, §3, §4, §5, §6

Chain of His-Brd2(60-472) (P25440 60-472): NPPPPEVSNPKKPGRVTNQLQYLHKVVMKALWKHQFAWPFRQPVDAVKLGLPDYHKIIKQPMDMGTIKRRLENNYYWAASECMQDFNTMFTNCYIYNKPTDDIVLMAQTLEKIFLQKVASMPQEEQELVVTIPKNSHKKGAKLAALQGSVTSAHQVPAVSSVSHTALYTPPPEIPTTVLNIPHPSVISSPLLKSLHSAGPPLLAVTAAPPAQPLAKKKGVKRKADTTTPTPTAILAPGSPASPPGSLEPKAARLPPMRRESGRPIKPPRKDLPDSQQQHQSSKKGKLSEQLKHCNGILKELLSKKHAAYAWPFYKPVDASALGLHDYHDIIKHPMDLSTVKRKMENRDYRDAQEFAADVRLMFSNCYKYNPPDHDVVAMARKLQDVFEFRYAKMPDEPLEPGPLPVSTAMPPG
Chain of His-Brd3(20-477) (Q15059 20-477): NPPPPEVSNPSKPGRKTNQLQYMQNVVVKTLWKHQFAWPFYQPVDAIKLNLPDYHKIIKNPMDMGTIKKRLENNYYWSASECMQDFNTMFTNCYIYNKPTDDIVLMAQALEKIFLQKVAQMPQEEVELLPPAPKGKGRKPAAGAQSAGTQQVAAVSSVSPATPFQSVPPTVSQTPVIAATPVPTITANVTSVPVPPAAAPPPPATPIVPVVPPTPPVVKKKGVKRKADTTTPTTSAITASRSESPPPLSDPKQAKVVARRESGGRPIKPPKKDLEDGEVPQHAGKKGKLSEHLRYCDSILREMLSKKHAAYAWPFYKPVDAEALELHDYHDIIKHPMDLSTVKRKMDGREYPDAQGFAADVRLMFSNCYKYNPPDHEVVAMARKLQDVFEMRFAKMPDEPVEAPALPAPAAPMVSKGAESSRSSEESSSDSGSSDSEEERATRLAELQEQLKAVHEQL

The term IC50 denotes the point on the concentration scale where inhibition reaches its midpoint. Higher therefore signals weaker potency. As for `Cc1nn(C2CC2)c2c1C(c1ccc(Cl)cc1)N(c1cc(C)c(=O)n(C)c1)C2=O` (racemic) [Example 23, 4-(4-chlorophenyl)-1-cyclopropyl-5-(1,5-dimethyl-6-oxo-1,6-dihydropyridin-3-yl)-3-methyl-4,5-dihydropyrrolo[3,4-c]pyrazol-6(1H)-one], the IC50 at His-Brd4(44-477) came to 66 nM.
Still for that read-out and setting: as for `COc1ccc(Cn2nc3c(c2C)C(c2ccc(Cl)cc2)N(c2ccc(=O)n(C)c2)C3=O)cc1` (centres unmarked) [Example 1, 4-(4-chlorophenyl)-2-(4-methoxybenzyl)-3-methyl-5-(1-methyl-6-oxo-1,6-dihydropyridin-3-yl)-4,5-dihydropyrrolo[3,4-c]pyrazol-6(2H)-one], the figure is 140 nM; as for `Cc1[nH]nc2c1C(c1ccc(Cl)cc1)N(c1ccc(=O)n(C)c1)C2=O` (centres unmarked) [Example 2, 4-(4-chlorophenyl)-3-methyl-5-(1-methyl-6-oxo-1,6-dihydropyridin-3-yl)-4,5-dihydropyrrolo[3,4-c]pyrazol-6(2H)-one], 170 nM.
`Cc1c2c(nn1C)C(=O)N(c1ccc(=O)n(C)c1)C2c1ccc(Cl)cc1` (centres unmarked) [Example 3, 4-(4-chlorophenyl)-2,3-dimethyl-5-(1-methyl-6-oxo-1,6-dihydropyridin-3-yl)-4,5-dihydropyrrolo[3,4-c]pyrazol-6(2H)-one]: the IC50 was 400 nM on His-Brd4(44-477), 580 nM on His-Brd2(60-472) and 520 nM on His-Brd3(20-477).
With `Cc1nn(C)c2c1C(c1ccc(Cl)cc1)N(c1ccc(=O)n(C)c1)C2=O` (centres unmarked) [Example 4, 4-(4-chlorophenyl)-1,3-dimethyl-5-(1-methyl-6-oxo-1,6-dihydropyridin-3-yl)-4,5-dihydropyrrolo[3,4-c]pyrazol-6(1H)-one], the IC50 at His-Brd4(44-477) was 230 nM.
Consider `Cc1c2c(nn1C)C(=O)N(c1cc(Cl)c(=O)n(C)c1)[C@H]2c1ccc(Cl)cc1` [Example 8, (S)-5-(5-chloro-1-methyl-6-oxo-1,6-dihydropyridin-3-yl)-4-(4-chlorophenyl)-2,3-dimethyl-4,5-dihydropyrrolo[3,4-c]pyrazol-6(2H)-one], for which the IC50 at His-Brd4(44-477) came to 31000 nM; on His-Brd2(60-472) it was 36000 nM; on His-Brd3(20-477), 27000 nM.
On the same counts, the results for `Cn1cc(N2C(=O)c3n[nH]cc3C2c2ccc(Cl)cc2)cc(Cl)c1=O` (centres unmarked) [Example 9, 5-(5-chloro-1-methyl-6-oxo-1,6-dihydropyridin-3-yl)-4-(4-chlorophenyl)-4,5-dihydropyrrolo[3,4-c]pyrazol-6(2H)-one] are 170 nM, 210 nM and 180 nM.
With `Cn1cc2c(n1)C(=O)N(c1cc(Cl)c(=O)n(C)c1)C2c1ccc(Cl)cc1` (centres unmarked) [Example 10, 5-(5-chloro-1-methyl-6-oxo-1,6-dihydropyridin-3-yl)-4-(4-chlorophenyl)-2-methyl-4,5-dihydropyrrolo[3,4-c]pyrazol-6(2H)-one], the IC50 was 150 nM at His-Brd4(44-477), 150 nM at His-Brd2(60-472) and 130 nM at His-Brd3(20-477).
For the compound `Cn1cc2c(n1)C(=O)N(c1cc(Cl)c(=O)n(C)c1)[C@@H]2c1ccc(Cl)cc1` [Example 11, (R)-5-(5-chloro-1-methyl-6-oxo-1,6-dihydropyridin-3-yl)-4-(4-chlorophenyl)-2-methyl-4,5-dihydropyrrolo[3,4-c]pyrazol-6(2H)-one], the IC50 on His-Brd4(44-477) was determined as 130 nM; on His-Brd2(60-472) it was 140 nM; on His-Brd3(20-477), 100 nM.
For `Cn1cc2c(n1)C(=O)N(c1cc(Cl)c(=O)n(C)c1)[C@H]2c1ccc(Cl)cc1` [Example 12, (S)-5-(5-chloro-1-methyl-6-oxo-1,6-dihydropyridin-3-yl)-4-(4-chlorophenyl)-2-methyl-4,5-dihydropyrrolo[3,4-c]pyrazol-6(2H)-one], in that order: more than 37000 nM, more than 37000 nM and more than 37000 nM.
For `Cc1cc(N2C(=O)c3nn(C)cc3C2c2ccc(Cl)cc2)cn(C)c1=O` (centres unmarked) [Example 13, 4-(4-chlorophenyl)-5-(1,5-dimethyl-6-oxo-1,6-dihydropyridin-3-yl)-2-methyl-4,5-dihydropyrrolo[3,4-c]pyrazol-6(2H)-one], in that order: 130 nM, 180 nM and 150 nM.
At His-Brd4(44-477), `Cn1cc2c(n1)C(=O)N(c1cc(F)c(=O)n(C)c1)C2c1ccc(Cl)cc1` (centres unmarked) [Example 14, 4-(4-chlorophenyl)-5-(5-fluoro-1-methyl-6-oxo-1,6-dihydropyridin-3-yl)-2-methyl-4,5-dihydropyrrolo[3,4-c]pyrazol-6(2H)-one] returned an IC50 of 460 nM.
`Cc1cc(N2C(=O)c3nn(C)cc3[C@@H]2c2ccc(Cl)cc2)cn(C)c1=O` [Example 15, (S)-4-(4-chlorophenyl)-5-(1,5-dimethyl-6-oxo-1,6-dihydropyridin-3-yl)-2-methyl-4,5-dihydropyrrolo[3,4-c]pyrazol-6(2H)-one] yielded an IC50 at His-Brd3(20-477) of more than 6700 nM.
With `Cc1cc(N2C(=O)c3nn(C4CC4)c(C)c3[C@@H]2c2ccc(Cl)cc2)cn(C)c1=O` [Example 22, (S)-4-(4-chlorophenyl)-2-cyclopropyl-5-(1,5-dimethyl-6-oxo-1,6-dihydropyridin-3-yl)-3-methyl-4,5-dihydropyrrolo[3,4-c]pyrazol-6(2H)-one], on His-Brd2(60-472), the IC50 is more than 6700 nM.
For `Cc1c2c(nn1C)C(=O)N(c1ccc3nnc(C)n3c1)C2c1ccc(Cl)cc1` (centres unmarked) [Example 25, 4-(4-chlorophenyl)-2,3-dimethyl-5-(3-methyl-[1,2,4]triazolo[4,3-a]pyridin-6-yl)-4,5-dihydropyrrolo[3,4-c]pyrazol-6(2H)-one], the IC50 at His-Brd4(44-477) was determined as 260 nM; at His-Brd2(60-472) it was 270 nM; on His-Brd3(20-477), 250 nM.
In the case of `Cc1cc(N2C(=O)c3nn(C)c(C)c3[C@@H]2c2ccc(Cl)cc2)cn(C)c1=O` [Example 29, (S)-4-(4-chlorophenyl)-5-(1,5-dimethyl-6-oxo-1,6-dihydropyridin-3-yl)-2,3-dimethyl-4,5-dihydropyrrolo[3,4-c]pyrazol-6(2H)-one], the IC50 on His-Brd4(44-477) was determined as 31000 nM; at His-Brd2(60-472), 28000 nM; at His-Brd3(20-477) it was 25000 nM.
In the case of `Cc1cc(N2C(=O)c3nn(C)c(C)c3[C@H]2c2ccc(Cl)cc2)cn(C)c1=O` [Example 30, (R)-4-(4-chlorophenyl)-5-(1,5-dimethyl-6-oxo-1,6-dihydropyridin-3-yl)-2,3-dimethyl-4,5-dihydropyrrolo[3,4-c]pyrazol-6(2H)-one], at His-Brd4(44-477), the IC50 came out at 31 nM.
Regarding `Cc1c2c(nn1C)C(=O)N(c1cc(F)c(=O)n(C)c1)C2c1ccc(Cl)cc1` (centres unmarked) [Example 31, 4-(4-chlorophenyl)-5-(5-fluoro-1-methyl-6-oxo-1,6-dihydropyridin-3-yl)-2,3-dimethyl-4,5-dihydropyrrolo[3,4-c]pyrazol-6(2H)-one], the IC50 at His-Brd4(44-477) turned out to be 520 nM; on His-Brd2(60-472), 690 nM; on His-Brd3(20-477), 470 nM.
On the same counts, the results for `Cc1c2c(nn1C)C(=O)N(c1ccc(=O)n(C)n1)C2c1ccc(Cl)cc1` (centres unmarked) [Example 32, 4-(4-chlorophenyl)-2,3-dimethyl-5-(1-methyl-6-oxo-1,6-dihydropyridazin-3-yl)-4,5-dihydropyrrolo[3,4-c]pyrazol-6(2H)-one] are 660 nM, 1200 nM and 890 nM.
On to `Cc1cc(N2C(=O)c3nn(C4CC4)cc3C2c2ccc(Cl)cc2)cn(C)c1=O` (centres unmarked) [Example 39, 4-(4-chlorophenyl)-2-cyclopropyl-5-(1,5-dimethyl-6-oxo-1,6-dihydropyridin-3-yl)-4,5-dihydropyrrolo[3,4-c]pyrazol-6(2H)-one], for which the IC50 at His-Brd4(44-477) is 120 nM; on His-Brd2(60-472), 78 nM; on His-Brd3(20-477), 91 nM.
